# Patent EP0222670A1, “Dissolved composition of (benzo-1,2,4-thiadiazine)-1,1-dioxide” (SHISEIDO COMPANY LIMITED, priority 1985, dated 1987)
# Test: solubilities of the dioxide in various solvents at room temperature
# Type: physicochemical
# Design: key: completely and transparently dissolved; x: partially not dissolved, with presence of crystals
# From the text: The solubilities of 7-chloro-3-methyl-2H[benzo-l,2,4-thiadiazine]-l,l-dioxide in various solvents at room temperature are shown in Table l.
# • *l: The dioxide is 7-chloro-3-methyl-2H-[benzo-l,2,4-thiadiazine]-l,l-dioxide • *2: Dipropylene glycol
# In the Table, o: completely and transparently dissolved; x: partially not dissolved, with presence of crystals.
substance,measurement,setting,value
"7-chloro-3-methyl-2H-[benzo-l,2,4-thiadiazine]-l,l-dioxide",solubility of Dioxide in solvent,"solvent BA, Dioxide 0.2 % by weight",o
same,solubility of Dioxide in solvent,"solvent BA, Dioxide 1.0 % by weight",o
same,solubility of Dioxide in solvent,"solvent BA, Dioxide 2.0 % by weight",x
same,solubility of Dioxide in solvent,"solvent BA, Dioxide 3.0 % by weight",x
same,solubility of Dioxide in solvent,"solvent BA/IPA = 1/9, Dioxide 0.2 % by weight",o
same,solubility of Dioxide in solvent,"solvent BA/IPA = 1/9, Dioxide 1.0 % by weight",o
same,solubility of Dioxide in solvent,"solvent BA/IPA = 1/9, Dioxide 2.0 % by weight",x
same,solubility of Dioxide in solvent,"solvent BA/IPA = 1/9, Dioxide 3.0 % by weight",x
same,solubility of Dioxide in solvent,"solvent BA/IPA/aqueous alkali solution (pH = 10) = 1/3/6, Dioxide 0.2 % by weight",o
same,solubility of Dioxide in solvent,"solvent BA/IPA/aqueous alkali solution (pH = 10) = 1/3/6, Dioxide 1.0 % by weight",o
same,solubility of Dioxide in solvent,"solvent BA/IPA/aqueous alkali solution (pH = 10) = 1/3/6, Dioxide 2.0 % by weight",o
same,solubility of Dioxide in solvent,"solvent BA/IPA/aqueous alkali solution (pH = 10) = 1/3/6, Dioxide 3.0 % by weight",o
same,solubility of Dioxide in solvent,"solvent DMSO, Dioxide 0.2 % by weight",o
same,solubility of Dioxide in solvent,"solvent DMSO, Dioxide 1.0 % by weight",o
same,solubility of Dioxide in solvent,"solvent DMSO, Dioxide 2.0 % by weight",o
same,solubility of Dioxide in solvent,"solvent DMSO, Dioxide 3.0 % by weight",o
same,solubility of Dioxide in solvent,"solvent DPG (Dipropylene glycol), Dioxide 0.2 % by weight",x
same,solubility of Dioxide in solvent,"solvent DPG (Dipropylene glycol), Dioxide 1.0 % by weight",x
same,solubility of Dioxide in solvent,"solvent DPG (Dipropylene glycol), Dioxide 2.0 % by weight",x
same,solubility of Dioxide in solvent,"solvent DPG (Dipropylene glycol), Dioxide 3.0 % by weight",x
same,solubility of Dioxide in solvent,"solvent Ethyl alcohol, Dioxide 0.2 % by weight",x
same,solubility of Dioxide in solvent,"solvent Ethyl alcohol, Dioxide 1.0 % by weight",x
same,solubility of Dioxide in solvent,"solvent Ethyl alcohol, Dioxide 2.0 % by weight",x
same,solubility of Dioxide in solvent,"solvent Ethyl alcohol, Dioxide 3.0 % by weight",x
same,solubility of Dioxide in solvent,"solvent IPA, Dioxide 0.2 % by weight",o
same,solubility of Dioxide in solvent,"solvent IPA, Dioxide 1.0 % by weight",x
same,solubility of Dioxide in solvent,"solvent IPA, Dioxide 2.0 % by weight",x
same,solubility of Dioxide in solvent,"solvent IPA, Dioxide 3.0 % by weight",x
same,solubility of Dioxide in solvent,"solvent IPA/DPG = 1/1, Dioxide 0.2 % by weight",o
same,solubility of Dioxide in solvent,"solvent IPA/DPG = 1/1, Dioxide 1.0 % by weight",x
same,solubility of Dioxide in solvent,"solvent IPA/DPG = 1/1, Dioxide 2.0 % by weight",x
same,solubility of Dioxide in solvent,"solvent IPA/DPG = 1/1, Dioxide 3.0 % by weight",x
same,solubility of Dioxide in solvent,"solvent IPA/DPG/aqueous alkali solution (pH = 10) = 2/1/1, Dioxide 0.2 % by weight",o
same,solubility of Dioxide in solvent,"solvent IPA/DPG/aqueous alkali solution (pH = 10) = 2/1/1, Dioxide 1.0 % by weight",o
same,solubility of Dioxide in solvent,"solvent IPA/DPG/aqueous alkali solution (pH = 10) = 2/1/1, Dioxide 2.0 % by weight",o
same,solubility of Dioxide in solvent,"solvent IPA/DPG/aqueous alkali solution (pH = 10) = 2/1/1, Dioxide 3.0 % by weight",o
